Where two headings read alike, the source gives them in different places.
What was measured:
[1] = system: T. gondii RH strain (RH-Tub-eYFP) tachyzoites; assay: microbe, parasite or virus in culture; type: cell-based, Toxoplasma gondii; details: 72 h, 72 h; for percent parasite growth at 2 µg/mL: Toxoplasma gondii
[2] = system: P. falciparum 3D7 parasites; assay: P. falciparum growth inhibition assay, 2-cycle (120 h treatment), delayed-death screen and dose-response; type: cell-based, Plasmodium falciparum; details: for activity at 2 µg/mL: Plasmodium falciparum
[3] = system: P. falciparum 3D7 parasites; assay: P. falciparum growth inhibition assay, 1-cycle (72 h treatment), SYBR DNA staining (library screen at 2 μg/mL and dose-response); type: cell-based, Plasmodium falciparum; details: for activity at 2 µg/mL: Plasmodium falciparum
[4] = library screen at 2 μg/mL, % growth, replicate 1, read-out: Tg_72h_%Growth_Rep1
[5] = library screen at 2 μg/mL, % growth, replicate 2, read-out: Tg_72h_%Growth_Rep2
[6] = T. gondii, screen at 2 μg/mL, replicate 1
[7] = T. gondii, screen at 2 μg/mL, replicate 2
[8] = P. falciparum, 120 h, screen at 2 μg/mL, replicate 1
[9] = P. falciparum, 120 h, screen at 2 μg/mL, replicate 2
[10] = P. falciparum, 72 h, screen at 2 μg/mL, replicate 1
[11] = P. falciparum, 72 h, screen at 2 μg/mL, replicate 2
[12] = library screen at 2 μg/mL, % growth, replicate 1
[13] = library screen at 2 μg/mL, % growth, replicate 2
[14] = library screen at 2 μg/mL, 120 h, % growth, replicate 1
[15] = library screen at 2 μg/mL, 120 h, % growth, replicate 2
[16] = library screen at 2 μg/mL, 72 h, % growth, replicate 1
[17] = library screen at 2 μg/mL, 72 h, % growth, replicate 2
[18] = T. gondii, parasite screen at 2 μg/mL, % growth, replicate 1
[19] = T. gondii, parasite screen at 2 μg/mL, % growth, replicate 2
[20] = P. falciparum 3D7, 120 h, parasite screen at 2 μg/mL, % growth, replicate 1
[21] = P. falciparum 3D7, 120 h, parasite screen at 2 μg/mL, % growth, replicate 2
[22] = P. falciparum 3D7, 72 h, parasite screen at 2 μg/mL, % growth, replicate 1
[23] = P. falciparum 3D7, 72 h, parasite screen at 2 μg/mL, % growth, replicate 2

CC1=C[C@@H]2/C=C(\C)CC[C@H](O)[C@H](O)/C=C/C(=O)[C@]23C(=O)N[C@@H](CC(C)C)[C@@H]3[C@@H]1C [Aspochalasin D]
percent parasite growth at 2 µg/mL [1, 4]: 5.85% | percent parasite growth at 2 µg/mL [1, 5]: 2.85% | activity at 2 µg/mL ([2]; 3D7, 120 h, library screen at 2 μg/mL, 120 h, % growth, replicate 1, read-out: Pf_120h_%Growth_Rep1): 74.4% | activity at 2 µg/mL ([2]; 3D7, 120 h, library screen at 2 μg/mL, 120 h, % growth, replicate 2, read-out: Pf_120h_%Growth_Rep2): 80.7% | activity at 2 µg/mL ([3]; 3D7, 72 h, library screen at 2 μg/mL, 72 h, % growth, replicate 1, read-out: Pf_72h_%Growth_Rep1): 71.8% | activity at 2 µg/mL ([3]; 3D7, 72 h, library screen at 2 μg/mL, 72 h, % growth, replicate 2, read-out: Pf_72h_%Growth_Rep2): 78.2%

CCC(=O)[C@@H](C)[C@@H](O)[C@H](C)C[C@@H](C)[C@H]1OC(=O)C[C@@]2(O)CC=C(C)[C@H](O2)/C(C)=C/CCC[C@@H](O[C@H]2C[C@@H](O)[C@H](O)[C@@H](C)O2)/C=C/[C@H](C)C[C@H]1C [Venturicidin B]
Tg_72h_%Growth_Rep1 [1, 6]: 0.31% | Tg_72h_%Growth_Rep2 [1, 7]: 1.90% | Pf_120h_%Growth_Rep1 [2, 8]: 23.65% | Pf_120h_%Growth_Rep2 [2, 9]: 5.91% | Pf_72h_%Growth_Rep1 [3, 10]: 25.34% | Pf_72h_%Growth_Rep2 [3, 11]: 5.57%

C=C1[C@@H](C)[C@H]2[C@H](Cc3ccccc3)NC(=O)[C@]23[C@H](OC(C)=O)/C=C/[C@](C)(O)C[C@@H](C)C/C=C/[C@H]3[C@@H]1O [Cytochalasin H]
Tg_72h_%Growth_Rep1 [1, 6]: 1.51% | Tg_72h_%Growth_Rep2 [1, 7]: 2.70% | Pf_120h_%Growth_Rep1 [2, 8]: 1.94% | Pf_120h_%Growth_Rep2 [2, 9]: -0.33% | Pf_72h_%Growth_Rep1 [3, 10]: 6.96% | Pf_72h_%Growth_Rep2 [3, 11]: 6.37%

CC[C@H]1OC(=O)[C@H](C)[C@@H](O[C@H]2C[C@@](C)(OC)[C@@H](O)[C@H](C)O2)[C@H](C)[C@@H](O[C@@H]2O[C@H](C)C[C@H]([N+](C)(C)[O-])[C@H]2O)[C@](C)(O)C[C@@H](C)C(=O)[C@H](C)[C@@H](O)[C@]1(C)O [Erythromycin A N-oxide]
Tg_72h_%Growth_Rep1 [1, 12]: 107.95% | Tg_72h_%Growth_Rep2 [1, 13]: 98.15% | Pf_120h_%Growth_Rep1 [2, 14]: 82.07% | Pf_120h_%Growth_Rep2 [2, 15]: 80.30% | Pf_72h_%Growth_Rep1 [3, 16]: 82.02% | Pf_72h_%Growth_Rep2 [3, 17]: 85.53%

C[C@H]1CCC[C@@H](O)CCCCCc2cc(O)cc(O)c2C(=O)O1 [Zearalanol, beta-]
Tg_72h_%Growth_Rep1 [1, 6]: 150.26% | Tg_72h_%Growth_Rep2 [1, 7]: 92.47% | Pf_120h_%Growth_Rep1 [2, 8]: 90.97% | Pf_120h_%Growth_Rep2 [2, 9]: 85.38% | Pf_72h_%Growth_Rep1 [3, 10]: 81.97% | Pf_72h_%Growth_Rep2 [3, 11]: 86.14%

COc1cc(OC)c2c(OC)c3ccoc3nc2c1OC [Trimethoxydictamnine, 5,7,8-]
Tg_72h_%Growth_Rep1 [1, 6]: 134.56% | Tg_72h_%Growth_Rep2 [1, 7]: 84.32% | Pf_120h_%Growth_Rep1 [2, 8]: 91.88% | Pf_120h_%Growth_Rep2 [2, 9]: 81.51% | Pf_72h_%Growth_Rep1 [3, 10]: 85.08% | Pf_72h_%Growth_Rep2 [3, 11]: 101.79%

CC[C@H]1CCC[C@H](O)[C@@H](C)C(=O)C2=C[C@@H]3[C@@H](C=C(C)[C@@H]4C[C@@H](O[C@@H]5O[C@@H](C)[C@H](OC)[C@@H](OC)[C@H]5OC)C[C@@H]34)[C@@H]2CC(=O)O1 [Spinosyn D 17-pseudoaglycone]
Tg_72h_%Growth_Rep1 ([1]; T. gondii, parasite screen 2 μg/mL, % growth, replicate 1): 111.08% | Tg_72h_%Growth_Rep2 ([1]; T. gondii, parasite screen 2 μg/mL, % growth, replicate 2): 100.61% | Pf_120h_%Growth_Rep1 ([2]; P. falciparum, 120 h, parasite screen 2 μg/mL, % growth, replicate 1): 8.86% | Pf_120h_%Growth_Rep2 ([2]; P. falciparum, 120 h, parasite screen 2 μg/mL, % growth, replicate 2): 19.25% | Pf_72h_%Growth_Rep1 ([3]; P. falciparum, 72 h, parasite screen 2 μg/mL, % growth, replicate 1): 18.47% | Pf_72h_%Growth_Rep2 ([3]; P. falciparum, 72 h, parasite screen 2 μg/mL, % growth, replicate 2): 12.37%

CC(=O)OCC1=C[C@@H]2OC(=O)C3=CO[C@@H](O[C@@H]4O[C@H](CO)[C@@H](O)[C@H](O)[C@H]4O)[C@H]1[C@@H]32 [Asperuloside]
percent parasite growth at 2 µg/mL [1, 4]: 123% | percent parasite growth at 2 µg/mL [1, 5]: 97.1% | activity at 2 µg/mL ([2]; 3D7, library screen at 2 μg/mL, 120 h, % growth, replicate 1, read-out: Pf_120h_%Growth_Rep1): 94.8% | activity at 2 µg/mL ([2]; 3D7, library screen at 2 μg/mL, 120 h, % growth, replicate 2, read-out: Pf_120h_%Growth_Rep2): 94.6% | activity at 2 µg/mL ([3]; 3D7, library screen at 2 μg/mL, 72 h, % growth, replicate 1, read-out: Pf_72h_%Growth_Rep1): 86.2% | activity at 2 µg/mL ([3]; 3D7, library screen at 2 μg/mL, 72 h, % growth, replicate 2, read-out: Pf_72h_%Growth_Rep2): 89.3%

CCCC(=O)N[C@H]1CCOC1=O [Butyryl-L-homoserine lactone]
Tg_72h_%Growth_Rep1 [1, 6]: 135.04% | Tg_72h_%Growth_Rep2 [1, 7]: 102.04% | Pf_120h_%Growth_Rep1 [2, 8]: 71.18% | Pf_120h_%Growth_Rep2 [2, 9]: 93.77% | Pf_72h_%Growth_Rep1 [3, 10]: 70.61% | Pf_72h_%Growth_Rep2 [3, 11]: 82.94%

COc1cc(-c2cc3c(c(=O)o2)C[C@]2(O)[C@@]4(C)C(=O)C=CC(C)(C)[C@]4(O)CC[C@@]2(C)O3)cc2c1OCO2 [Territrem A]
percent parasite growth at 2 µg/mL ([1]; T. gondii, screen at 2 μg/mL, replicate 1, read-out: Tg_72h_%Growth_Rep1): 104% | percent parasite growth at 2 µg/mL ([1]; T. gondii, screen at 2 μg/mL, replicate 2, read-out: Tg_72h_%Growth_Rep2): 88.7% | activity at 2 µg/mL ([2]; 3D7, 120 h, P. falciparum, 120 h, screen at 2 μg/mL, replicate 1, read-out: Pf_120h_%Growth_Rep1): 6.66% | activity at 2 µg/mL ([2]; 3D7, 120 h, P. falciparum, 120 h, screen at 2 μg/mL, replicate 2, read-out: Pf_120h_%Growth_Rep2): 112% | Mean ([3]; P. falciparum, 72 h, 2 μg/mL, mean of both replicates, growth (% of control)): 49.47 | activity at 2 µg/mL ([3]; 3D7, 72 h, P. falciparum, 72 h, screen at 2 μg/mL, replicate 1, read-out: Pf_72h_%Growth_Rep1): 14.3% | activity at 2 µg/mL ([3]; 3D7, 72 h, P. falciparum, 72 h, screen at 2 μg/mL, replicate 2, read-out: Pf_72h_%Growth_Rep2): 84.6%

COc1cc(O)c2c(c1)/C=C/C[C@H](O)[C@H](O)C(=O)/C=C/C[C@H](C)OC2=O [BIA-O1897]
Tg_72h_%Growth_Rep1 [1, 18]: 58.83% | Tg_72h_%Growth_Rep2 [1, 19]: 79.20% | Pf_120h_%Growth_Rep1 [2, 20]: 71.81% | Pf_120h_%Growth_Rep2 [2, 21]: 72.01% | Pf_72h_%Growth_Rep1 [3, 22]: 68.65% | Pf_72h_%Growth_Rep2 [3, 23]: 68.31%

CC=C(C)C(O)C(C)C=C(C)C=CCC(C)=CCc1nc(OC)c(OC)c(O)c1C (stereo not shown) [BIA-P1069]
Tg_72h_%Growth_Rep1 [1, 18]: 120.41% | Tg_72h_%Growth_Rep2 [1, 19]: 75.10% | Pf_120h_%Growth_Rep1 [2, 20]: 92.39% | Pf_120h_%Growth_Rep2 [2, 21]: 102.66% | Pf_72h_%Growth_Rep1 [3, 22]: 80.36% | Pf_72h_%Growth_Rep2 [3, 23]: 61.30%

COc1ccc2cc1Oc1cc(ccc1O)[C@H](O)[C@]13SS[C@@]4(C(=O)N1C)[C@H](O)C1=COC=C[C@H](OC2=O)[C@H]1N4C3=O [Emestrin]
Tg_72h_%Growth_Rep1 [1, 12]: 2.77% | Tg_72h_%Growth_Rep2 [1, 13]: 0.86% | Pf_120h_%Growth_Rep1 [2, 14]: 35.44% | Pf_120h_%Growth_Rep2 [2, 15]: 47.36% | Pf_72h_%Growth_Rep1 [3, 16]: 36.85% | Pf_72h_%Growth_Rep2 [3, 17]: 26.37%

COc1c(O)c(C)c(C)c(O)c1OC [BIA-H1651]
Tg_72h_%Growth_Rep1 ([1]; T. gondii RH, library screen at 2 μg/mL, % growth, replicate 1): 138.57% | Tg_72h_%Growth_Rep2 ([1]; T. gondii RH, library screen at 2 μg/mL, % growth, replicate 2): 100.12% | Pf_120h_%Growth_Rep1 ([2]; P. falciparum 3D7, 120 h, library screen at 2 μg/mL, % growth, replicate 1): 17.29% | Pf_120h_%Growth_Rep2 ([2]; P. falciparum 3D7, 120 h, library screen at 2 μg/mL, % growth, replicate 2): 12.27% | Pf_72h_%Growth_Rep1 ([3]; P. falciparum 3D7, 72 h, library screen at 2 μg/mL, % growth, replicate 1): 6.09% | Pf_72h_%Growth_Rep2 ([3]; P. falciparum 3D7, 72 h, library screen at 2 μg/mL, % growth, replicate 2): 2.27%
